Measured values: US20230295236A1, “COMPOUNDS FOR USE IN INFLAMMATORY CONDITIONS” (priority 2020, published 2023)
Read-outs that look alike come from different tables or passages of the source. Numbered stars: 1 amine (or outer) side, 2 acyl side, 3 side chain; on linkers, the order of the positions; unused ones are H or OH. Bridge positions count the residues as written; N and C are the ends. Square brackets hold non-standard residues; d marks the D form. Peptide text beside a SMILES is read from it. * marks the point of attachment. Benzothiophen(2-yl)carbonyl = O=C(c1cc2ccccc2s1)*; X2 = CC[C@H](C)[C@@H](N[*:1])[C@@H](O)CC(=O)[*:2]; NMeY = CN[C@@H](Cc1ccc(O)cc1)C(=O)O; dNMeL = CN[C@H](CC(C)C)C(=O)O; Hiv = CC(C)[C@H](O)C(=O)O; Aib = CC(C)(N)C(=O)O

Legend:
[1] = tested on: HIV-1 recombinant virus (NL4.3 Luc); format: cell-based; details: MT-2 cells
[2] = tested on: HIV-1 recombinant virus (NL4.3 Luc); format: cell-based; details: PBMCs
[3] = tested on: MT-2 cells
[4] = tested on: HCoV-229E; format: cell-based
[5] = tested on: Huh-7 cells (human hepatoma cell line)
[6] = tested on: THP-1 cells; assay: Plitidepsin pre-treatment of THP-1 NFκB luc cells before Resiquimod: cell viability; format: cell-based, human; details: 1, 10 or 50 nM added 8 hours before Resiquimod 2.5 or 5 µg/mL; measured at 24 hours
Procedure: (§1) In a further in vitro experiment, the effect of plitidepsin (APL) pre-treatment on THP-1 cells was studied. Using a THP-1 NFκB luc line, 1, 10 or 50 nM of APL or DMSO (0.2%) was added 8 hours before stimulus with Resiquimod (RQ) at 2.5 or 5 µg/mL. RQ is a TLR⅞ agonist and mimics ssRNA. At 24 hours the level of cytokines or cell viability was measured.

[7] = tested on: TNFα; assay: Resiquimod-triggered TNFα in BALF of mice; format: in vivo; details: mice 1 mg/kg i.v. 1 hour before 50 µg/mouse intranasal resiquimod; 1 and 3 hours
[8] = tested on: IL6, IL8, IL1β and TNF-α secretion; assay: Plitidepsin pre-treatment of THP-1 NFκB luc cells before Resiquimod: cytokines; format: cell-based, human; details: 1, 10 or 50 nM added 8 hours before Resiquimod 2.5 or 5 µg/mL; measured at 24 hours
Procedure: as §1

[9] = tested on: SARS-CoV-2; assay: APLICOV-PC clinical study in patients hospitalised for COVID-19: efficacy; format: in vivo, human
[10] = tested on: alveolar macrophages; assay: LPS animal inflammation model: macrophages in bronchoalveolar lavage by flow cytometry; format: in vivo, mouse; details: mice 1 mg/kg single i.v., LPS 20 µg/kg i.p.
Description: Three hours later, bronchoalveolar lavages were collected.

CC[C@H](C)[C@H]1NC(=O)[C@@H](NC(=O)[C@H](CC(C)C)N(C)C(=O)[C@@H]2CCCN2C(=O)C(C)=O)[C@@H](C)OC(=O)[C@H](Cc2ccc(OC)cc2)N(C)C(=O)[C@@H]2CCCN2C(=O)[C@H](CC(C)C)NC(=O)[C@@H](C)C(=O)[C@H](C(C)C)OC(=O)C[C@@H]1O [Compound 8]
Antiviral activity [1]: antiviral activity | Antiviral activity [2]: antiviral activity

CC[C@H](C)[C@H]1NC(=O)[C@@H](NC(=O)[C@@H](CC(C)C)NC)[C@@H](C)OC(=O)[C@H](Cc2ccc(OC)cc2)N(C)C(=O)[C@@H]2CCCN2C(=O)[C@H](CC(C)C)NC(=O)C(C)(C)NC(=O)C[C@@H]1O [Compound 3] (H-[dNMeL]T[X2][Aib]LP[NMeY](Me); ester 2-C)
Toxic concentrations (not reached at) [3]: > 57.3 µM

CC[C@H](C)[C@H]1NC(=O)[C@@H](NC(=O)[C@@H](CC(C)C)N(C)C(=O)c2cc3ccccc3s2)[C@@H](C)OC(=O)[C@H](Cc2ccc(OC)cc2)N(C)C(=O)[C@@H]2CCCN2C(=O)[C@H](CC(C)C)NC(=O)[C@H](C(C)C)OC(=O)C[C@@H]1O [Compound 10] ({Benzothiophen(2-yl)carbonyl}-[dNMeL]T[X2][Hiv]LP[NMeY](Me); ester 2-C)
Antiviral activity (GFP fluorescence images) [4]: remarkable antiviral properties are seen across all concentrations | Cell growth / viability (DAPI fluorescence images) [5]: cells remain viable at all concentrations

CC[C@H](C)[C@H]1NC(=O)[C@@H](NC(=O)[C@H](CC(C)C)N(C)C(=O)[C@@H]2CCCN2C(=O)C(C)=O)[C@@H](C)OC(=O)[C@H](Cc2ccc(OC)cc2)N(C)C(=O)[C@@H]2CCCN2C(=O)[C@H](CC(C)C)NC(=O)[C@@H](C)C(=O)[C@H](C(C)C)OC(=O)C[C@@H]1O [PLD, Plitidepsin]
Cell viability [6]: does not decrease viability over the untreated control | Resiquimod-induced TNFα production in BALF [7]: prevented the increased production of TNFα | Antiviral activity (GFP fluorescence images) [4]: remarkable antiviral properties are seen across all concentrations | Secretion of IL6, IL8, IL1β and TNF-α induced by RQ [8]: inhibited secretion of the pro-inflammatory cytokines: IL6, IL8, IL1β and TNF-α | Median time for PCR conversion [9]: 7 days | Evaluable patients requiring post PLD specific anti COVID 19 therapy ([9]; interim results): 2 out of 8 | Evaluable patients with disease control and major clinical improvements ([9]; interim results): 6 out of 8 | Evaluable patients with PCR conversion to negative ([9]; interim results, 1.5 mg and 2 mg cohorts): 6 out of 8 | Deaths on study ([9]; interim results, 9 patients): no deaths on study | Need for mechanical ventilation or ICU admission ([9]; interim results, 9 patients): none of the patients required mechanical ventilation or ICU admission | Median time to hospital discharge ([9]; interim results, range (7 -19)): 8 days | Macrophages in bronchoalveolar lavage [10]: reduces the number of macrophages in BAL | Cell growth / viability (DAPI fluorescence images) [5]: cells remain viable at all concentrations

CC[C@H](C)[C@H]1NC(=O)[C@@H](NC(=O)[C@@H](CC(C)C)N(C)C(=O)[C@@H]2CCCN2C(=O)[C@H](C)NC(=O)[C@@H](Cc2ccccc2)NC(=O)OC(C)(C)C)[C@@H](C)OC(=O)[C@H](Cc2ccc(OC)cc2)N(C)C(=O)[C@@H]2CCCN2C(=O)[C@H](CC(C)C)NC(=O)[C@@H](C)C(=O)[C@H](C(C)C)OC(=O)C[C@@H]1O [Compound 9]
Antiviral activity (GFP fluorescence images) [4]: remarkable antiviral properties are seen across all concentrations | Cell growth / viability (DAPI fluorescence images) [5]: cells remain viable at all concentrations
